Results: patent US20260199212A1, “USE OF L-CARNOSINE AGAINST SOLAR ELASTOSIS” (SYMRISE AG, priority 2022, published 2026)

Assays:
fibrillin-1 = test: Fibrillin-1 immunostaining in the papillary dermis of skin explants, semi-quantified by image analysis; assay type: cell-based, human; conditions: after infrared irradiation
Experimental: (§1) Human skin explants of an average diameter of 12 mm (+1 mm) were prepared on an abdo-plasty coming from a person with a phototype II according to Fitz-patrick skin colour classification. The explants were kept in survival in BEM culture medium (BIO-EC's Explants Medium) at 37° C. in a humid, 5%-CO2 atmosphere.
(§2) Compositions A and B were applied at the rate of 2 μL per 1 cm^2 skin sample (~2 mg/cm^2) and spread using a small spatula on day 0, day 1, day 2, day 3 and day 6 (30 min before infrared irradiation exposure). […] The culture medium was half renewed (1 ml per well) on day 2, day 3 and day 6.
(§3) On day 6, the culture media of all the batches was replaced by HBSS (Hank's Balanced Saline Solution; 1 ml per explant). The batches IR, IR-C2, and IR-T were irradiated using a infrared lamp (Dr FISCHER 1000W, 235V 2500K; 760-3000 nm), for 1:24 h (720 J/cm^2; 140 mW/cm^2). The non-irradiated batches were kept in HBSS in the dark. […]
Nuclei have been post-stained with propidium iodide. The staining was assessed by microscopical observation and semi-quantified by image analysis. […]
Fibrillin-1 immunostaining was assessed by microscopical observation of skin sections with semi-quantification by image analysis using the software cellSens (Olympus).
(§4) Analysed zone: ROI including the papillary dermis.
(§5) Number of analysed images per batch: 9. […]

tropoelastin = test: Tropoelastin immunostaining in the papillary dermis of skin explants, semi-quantified by image analysis; assay type: cell-based, human; conditions: when applying L-Carnosine
Experimental: as §1, §2, §3
Nuclei have been post stained with propidium iodide. The staining was assessed by microscopical observation and semi-quantified by image analysis. […]
Tropoelastin immunostaining was assessed by microscopical observation of skin sections with semi-quantification by image analysis using the software cellSens (Olympus).
as §4, §5

## NCCC(=O)N[C@@H](Cc1cnc[nH]1)C(=O)O [L-Carnosine]
fibrillin-1
  amount of fibrillin-1 in the dermis: strongly increase
tropoelastin
  amounts of elastin after infrared irradiation versus without infrared irradiation: not significantly different
